Consider three compounds from patent US5380763A, “Topical composition for treating acne vulgaris” (Takasago International Corporation, priority 1992, dated 1995).

In brackets after ≈: the same amount, converted by molar mass. Like-named read-outs stand apart in the source and are kept apart here.

In one experiment the test system is Staphylococcus aureaus. The conditions noted are these: among 1-alkanols having 10 to 16 carbon atoms; Kato et al. (1980); cited from earlier work.
The test system of the next experiment is Propionibacterium acnes. In words: Minimum inhibitory concentration (MIC) against Propionibacterium acnes (Test Example 1). It is filed as cell-based, Propionibacterium acnes (ATCC 6919). The conditions noted are these: Cutibacterium acnes. As to the method: The minimum inhibitory concentration (MIC) of 1-pentadecanol against Propionibacterium acnes was determined as follows.
In 1 l of purified water was dissolved 59.0 g of a GAM (Gifu anaerobic medium) bouillon medium (Nissui Pharmaceutical Co., Ltd.) and 1-pentadecanol was added to the bouillon solution to give a concentration of 100 μg/ml. The mixture was stepwise diluted two times with the same medium, followed by sterilization.
A 10 ml aliquot of the mixture was put in a test tube and inoculated with 0.1 ml of the culture of Propionibacterium acnes (ATCC 6919) which had been precultured so as to give a cell density of 1×10^8 cells/ml. The system was static-cultured under anaerobic conditions for 48 hours, and the turbidity was measured at a wavelength of 660 nm to obtain MIC (μg/ml).
For comparison, MIC of 1-dodecanol and 1-hexadecanol, which have relatively strong antibacterial activity on several bacteria and are generally used as a base of cosmetics, against Propionibacterium acnes was obtained in the same manner.

The mark [1] stands for this setting: GAM bouillon medium, anaerobic static culture 48 hours, turbidity at 660 nm, read-out: MIC.

In the case of `CCCCCCCCCCCCO` [1-dodecanol], the “effectiveness on Staphylococcus aureaus” value in the experiment on Staphylococcus aureaus is recorded as “the most effective”. In addition, the minimal inhibitory concentration (MIC) with Propionibacterium acnes (setting [1]) was 25 µg/mL (≈ 134 µM).

As for `CCCCCCCCCCCCCCCCO` [1-hexadecanol], the MIC in the experiment with Propionibacterium acnes (setting [1]) is above 200 µg/mL.

`CCCCCCCCCCCCCCCO` [1-pentadecanol] yielded a minimum inhibitory concentration (MIC) against Propionibacterium acnes (48 h) of 3.13 µg/mL (≈ 13.7 µM).
